How the values were obtained:
[1] = test system: multidrug-resistant S. aureus; experiment: Sensitization of antibiotic-resistant bacteria (compound plus breakpoint antibiotic concentration); type: cell-based, Staphylococcus aureus; conditions: flavonoid 40 µM, 24 h; for Effect on viability in combination with chloramphenicol: chloramphenicol 8 mg/L
Experimental: (§1) Clinically relevant antibiotics were selected for sensitization testing according to the European Committee on Antimicrobial Susceptibility Testing (EUCAST). Neither colistin and imipenem at breakpoint concentrations (according to EUCAST, […] and […]) affected the growth of the multidrug-resistant clinical strain of P. aeruginosa. Similarly, neither chloramphenicol and gentamicin at breakpoint concentrations ([…], respectively) affected the multidrug-resistant clinical strain of S. aureus. Flavonoids and their derivatives (1–40 µM) were used in combination therapy, along with the breakpoint concentration of antibiotics. After co-incubation, the minimum inhibitory concentration of flavonoids inhibiting the visible growth of bacteria was determined (Table 2).
(§2) Clinical isolates of P. aeruginosa and S. aureus were obtained from the General University Hospital in Prague (Prague, Czech Republic). P. aeruginosa was resistant to ciprofloxacin, oxacillin, ticarcillin, colistin, gentamicin, and imipenem. S. aureus was resistant to ciprofloxacin, gentamicin, erythromycin, chloramphenicol, clindamycin, oxacillin, cefotaxime, and vancomycin. Bacteria were cultivated in Mueller–Hinton broth (MH broth, Merck). The susceptibility of the bacteria was evaluated by the minimum inhibitory concentrations (MIC). The MIC of derivatives in the presence of the antibiotic cut-off concentration was determined according to ISO 20776-1: 2020. The antibiotic cut-off concentration was chosen according to the European Committee on Antimicrobial Susceptibility Testing (EUCAST, Clinical breakpoints—bacteria (ver. 11.0), 1 January 2021). The 40 µM concentration of the derivatives was chosen as the highest concentration for the tests. Cell viability was determined by measuring absorbance (A590 nm) after 24 h incubation at 37 °C, 150 rpm.

[2] = Folin-Ciocalteu reagent reduction; conditions: gallic acid equivalents
Experimental: (§3) To further elucidate how halogenation affects other properties of the flavonoids studied, their 2,2′-azino-bis-(3-ethylbenzothiazoline-6-sulfonic acid) cation (ABTS) and 1,1-diphenyl-2-picrylhydrazyl (DPPH) radical scavenging, the Folin–Ciocalteu reagent (FCR) reducing, the ferric-reducing antioxidant power (FRAP), and the anti-lipoperoxidation activities were evaluated by in vitro methods (Supplementary Information Tables S1 and S2).
(§4) The antiradical activity was evaluated by the ability to scavenge ABTS and DPPH radicals. Reducing capacity was assessed by the ability to reduce the Folin–Ciocalteu reagent (FCR) and ferric ions (FRAP). The ability to inhibit lipid peroxidation of pooled male rat microsomal liver membranes induced by tert-butyl hydroperoxide was also evaluated and the results were expressed as IC50 values.

[3] = test system: human dermal fibroblasts (HDF); experiment: Cytotoxicity (resazurin assay, 72 h); type: cell-based; conditions: Fibroblast
Experimental: (§5) The cytotoxicity of flavonoids and their halogenated derivatives was determined as their ability to decrease the viability of human dermal fibroblasts (HDF) and doxorubicin-resistant human ovarian carcinomas (HOC/DOX). Both cell lines were cultivated in Dulbecco’s Modified Eagle’s Medium supplemented with fetal bovine serum (FBS, 10% v/v) and 1 × antibiotic antimycotic solution and incubated at 37 °C in the atmosphere of 5% CO2. The experiment was performed according to a previously published method. Briefly, 1 × 10^5 cells/mL were seeded into a 96-well plate (100 µL/well). After 24 h, flavonoids and their derivatives were administered at the concentration range of 31.25–500 µM. After 72 h, the viability was determined by resazurin assay (0.03 mg/mL of resazurin in PBS), where the fluorescence was measured after 2 h of incubation by the SpectraMax i3x microplate reader at a wavelength of 560/590 nm (excitation/emission). The concentration inhibiting half of the population (IC50) was determined using nonlinear regression in GraphPad Prism software. The selectivity index was calculated as the ratio between the IC50 for HDF (control, non-cancerous cells) and the IC50 for HOC/DOX (cancer cells).

[4] = test system: doxorubicin-resistant human ovarian carcinoma (HOC/DOX); experiment: Cytotoxicity (resazurin assay, 72 h); type: cell-based; conditions: for IC50: Homo sapiens, 72 h, resazurin assay; for SI (selectivity index): ratio IC50 for HDF / IC50 for HOC/DOX
Experimental: as §5

[5] = test system: lipopolysaccharide-stimulated macrophages (RAW 264.7); experiment: Inhibition of nitric oxide production (Griess reagent); type: cell-based, murine; conditions: Mus musculus, RAW264.7; LPS 100 ng/mL, 24 h; highest tested concentration 100 µM; read-out: NO Production IC50
Experimental: The anti-inflammatory activity of the tested flavonolignans was determined as the ability to reduce nitric oxide production by murine macrophages (RAW 264.7) stimulated by bacterial lipopolysaccharides, as previously described. […] For the experiment, 1 × 10^6 cells/mL was seeded into the 96-well plate (100 µL/well). […] After 24 h, the medium was mixed with Griess reagent (0.04 g/mL), prepared freshly in deionized water at the ratio of 1:1. The absorbance was measured after 15 min at 540 nm by the SpectraMax i3x microplate reader. Cell viability was determined by resazurin assay.

[6] = test system: multidrug-resistant P. aeruginosa; experiment: Sensitization of antibiotic-resistant bacteria (compound plus breakpoint antibiotic concentration); type: cell-based, Pseudomonas aeruginosa; conditions: flavonoid 40 µM, 24 h; for Effect on viability in combination with imipenem: imipenem 4 mg/L; on Effect on viability in combination with imipenem: key: -: no effect (100% viability) was observed up to the highest flavonolignan concentration tested (>40 µM); reversion of resistance: the compound reversed the resistant phenotype to a sensitive one
Experimental: as §1, §2

[7] = ABTS cation radical scavenging; conditions: vitamin C equivalent antioxidant capacity
Experimental: as §3, §4

DPPH radical scavenging = conditions: 1,1-diphenyl-2-picrylhydrazyl radical scavenging
Experimental: as §3, §4

[8] = Ferric reducing antioxidant power (FRAP); conditions: Fe2+ equivalents
Experimental: as §3, §4

[9] = test system: Vibrio campbellii BAA 1119 (AI-2); experiment: microbe, parasite or virus in culture; type: cell-based; conditions: for EC50: Vibrio campbellii, BAA1119, 16 h, read-out: EC50 (concentration that halved the communication)
Source text: (§6) Commercially available strains of Vibrio campbellii were used to evaluate the ability of flavonoids and their derivatives to inhibit bacterial quorum sensing. V. campbellii uses two types of autoinducing molecules for its communication—N-acyl-homoserine lactones (Autoinducer I, AI-1, strain BAA 1118) and furanosyl borate diester (Autoinducer II, AI-2, strain BAA 1119). AI-1-based communication is mainly used by Gram-negative bacteria, while AI-2-based communication is found in both Gram-negative and Gram-positive bacteria. The mutant strains of V. campbellii BA1118 and BA1119 respond only to AI-1 or AI-2, respectively, and the response to the respective AI concentration is measured as luminescence. The higher the AI concentration, the higher the luminescence signal. The ability to inhibit the communication was expressed as the selectivity index (SI), calculated as the ratio between the concentration that halved the viability (IC50) and the concentration that halved the communication (EC50) of the respective V. campbellii strains. […] The antimicrobial activity of quorum-sensing inhibitors is undesirable because it creates a selection pressure and can lead to the development of resistance.
(§7) The inhibition of bacterial extracellular communication was measured using Vibrio campbellii strains BAA-1118 and BAA-1119. The experiment was performed according to the methods of Szemerédi et al.. Briefly, 5 × 10^5 CFU/mL (colony-forming units per milliliter) were seeded in an Autoinducer Bioassay medium (NaCl 17.5 g/L, MgSO4 12.3 g/L, Casamino acids 2 g/L, 10 mL of 1 M potassium phosphate pH 7.0, 10 mL of 0.1 M L-arginine, and 10 mL of glycerol in 970 mL of deionized water) in a 96-well plate. Immediately, the tested compounds were added at the final concentration of 0.2–200 µM and luminescence was recorded for 16 h by a SpectraMax i3x microplate reader set at 30 °C, an integration time of 10,000 ms, and shaking for 60 s before measurement. […] The selectivity index was calculated as the […]. The EC50 and IC50 were calculated using GraphPad Prism software version 5.00 for Windows with a nonlinear regression curve fit.

[10] = test system: Vibrio campbellii BAA 1118 (AI-1); experiment: microbe, parasite or virus in culture; type: cell-based; conditions: Vibrio campbellii, BAA1118, 16 h, read-out: EC50 (concentration that halved the communication)
Source text: as §6, §7

[11] = test system: Vibrio campbellii BAA 1119 (AI-2); experiment: Viability of the quorum-sensing reporter culture (resazurin assay), AI-2 strain; type: cell-based; conditions: BAA1119, V. campbellii BAA 1119, resazurin assay, read-out: IC50 (concentration that halved the viability)
Source text: as §6, §7

[12] = test system: Vibrio campbellii BAA 1118 (AI-1); experiment: Viability of the quorum-sensing reporter culture (resazurin assay), AI-1 strain; type: cell-based; conditions: BAA1118, V. campbellii BAA 1118, resazurin assay, read-out: IC50 (concentration that halved the viability)
Source text: as §6, §7

[13] = test system: pooled male rat microsomal liver membranes; experiment: Inhibition of lipid peroxidation induced by tert-butyl hydroperoxide; type: biochemical; conditions: male rat microsomes, read-out: ILP IC50
Experimental: as §4

[14] = test system: S. aureus biofilm formation; parameters: method as in PMID 28365326; conditions: cited from earlier work
breast cancer cell lines = test system: breast cancer cell lines; parameters: method as in PMID 23962161; conditions: cited from earlier work

**Q.** For `COc1cc([C@@H]2Oc3c(O)cc([C@H]4Oc5c(Br)c(O)c(Br)c(O)c5C(=O)[C@@H]4O)cc3[C@H]2CO)ccc1O` [compound 15, 6,8-Dibromosilychristin A], which “Effect on viability in combination with chloramphenicol” value [1] is on record?
**A.** Its value is “-”.

**Q.** What about the “FCR [GAE]” value [2] of the same molecule?
**A.** The value was 2.03 ± 0.05 GAE.

**Q.** What about the IC50 [3] of the same molecule?
**A.** Its IC50 is 176 µM.

**Q.** What about the IC50 [4] of the same molecule?
**A.** Its IC50 is 249 µM.

**Q.** And the “SI (selectivity index)” value [4]?
**A.** Its value is 0.71.

**Q.** What about the IC50 [5] of the same molecule?
**A.** The IC50 was over 100 µM.

**Q.** What about the “Effect on viability in combination with colistin” value ([6]; colistin 2 mg/L) of the same molecule?
**A.** Its value is “-”.

**Q.** What about the “Effect on viability in combination with imipenem” value [6] of the same molecule?
**A.** The value was “-”.

**Q.** And the “ABTS [CEAC]” value [7]?
**A.** The value was 1.28 ± 0.02 CEAC.

**Q.** And the IC50 (DPPH radical scavenging)?
**A.** The IC50 was 106 µM.

**Q.** And the “FRAP [Fe2+eq]” value [8]?
**A.** The value was 0.34 ± 0.03 Fe2+eq.

**Q.** What about the EC50 [9] of the same molecule?
**A.** The EC50 was over 200 µM.

**Q.** And the EC50 [10]?
**A.** Its EC50 is over 200 µM.

**Q.** What about the IC50 [11] of the same molecule?
**A.** The IC50 was over 200 µM.

**Q.** And the IC50 [12]?
**A.** The IC50 was over 200 µM.

**Q.** What about the IC50 [13] of the same molecule?
**A.** Its IC50 is 459 µM.

**Q.** With `COc1cc(C2Oc3cc(-c4oc5c(Br)c(O)c(Br)c(O)c5c(=O)c4O)ccc3OC2CO)ccc1O` (stereo not drawn) [compound 17, 6,8-dibromo-2,3-dehydrosilybin AB] as the molecule, how does the “Effect on viability in combination with chloramphenicol” value [1] read?
**A.** The value was “-”.

**Q.** What about the “Effect on viability in combination with gentamicin” value ([1]; gentamicin 1 mg/L) of the same molecule?
**A.** The value was “-”.

**Q.** And the “FCR [GAE]” value [2]?
**A.** Its value is 1.50 ± 0.02 GAE.

**Q.** And the IC50 [3]?
**A.** The IC50 was 41.7 ± 1 µM.

**Q.** And the IC50 [4]?
**A.** The IC50 was 91.3 ± 1.6 µM.

**Q.** What about the “SI (selectivity index)” value [4] of the same molecule?
**A.** Its value is 0.46.

**Q.** What about the IC50 [5] of the same molecule?
**A.** Its IC50 is 44.4 ± 2.4 µM.

**Q.** What about the “Effect on viability in combination with imipenem” value [6] of the same molecule?
**A.** Its value is “-”.

**Q.** What about the “ABTS [CEAC]” value [7] of the same molecule?
**A.** The value was 1.49 ± 0.04 CEAC.

**Q.** What about the IC50 (DPPH radical scavenging) of the same molecule?
**A.** Its IC50 is 11.7 µM.

**Q.** And the “FRAP [Fe2+eq]” value [8]?
**A.** Its value is 0.54 ± 0.04 Fe2+eq.

**Q.** And the EC50 [9]?
**A.** Its EC50 is 4.1 ± 0.2 µM.

**Q.** And the “SI (selectivity index)” value ([9]; ratio IC50 (viability) / EC50 (communication), BAA 1119)?
**A.** The value was 31.2 ± 3.5.

**Q.** And the EC50 [10]?
**A.** Its EC50 is 55.5 ± 1.6 µM.

**Q.** What about the IC50 [11] of the same molecule?
**A.** Its IC50 is 127 ± 7.4 µM.

**Q.** And the IC50 [12]?
**A.** Its IC50 is over 200 µM.

**Q.** And the IC50 [13]?
**A.** The IC50 was 56.7 ± 1.6 µM.

**Q.** With `COc1cc([C@@H]2Oc3c(O)cc([C@H]4Oc5c(I)c(O)c(I)c(O)c5C(=O)[C@@H]4O)cc3[C@H]2CO)ccc1O` [compound 27, 6,8-diiodosilychristin A] as the molecule, how does the “FCR [GAE]” value [2] read?
**A.** The value was 1.79 ± 0.05 GAE.

**Q.** And the “ABTS [CEAC]” value [7]?
**A.** Its value is 1.13 ± 0.01 CEAC.

**Q.** What about the IC50 (DPPH radical scavenging) of the same molecule?
**A.** Its IC50 is 168 µM.

**Q.** What about the “FRAP [Fe2+eq]” value [8] of the same molecule?
**A.** Its value is 0.21 ± 0.01 Fe2+eq.

**Q.** And the IC50 [13]?
**A.** Its IC50 is 97.2 ± 3.5 µM.

**Q.** With `COc1ccc([C@@H]2CC(=O)c3c(O)cc(O)cc3O2)cc1O` [hesperetin] as the molecule, how does the “Concentration inhibiting S. aureus biofilm formation” value [14] read?
**A.** Its value is at most 4 µM.

**Q.** Which “Concentration inhibiting S. aureus biofilm formation” value [14] does the source give for `O=c1c(O)c(-c2cc(O)c(O)c(O)c2)oc2cc(O)cc(O)c12` [myricetin] here?
**A.** The value was at most 4 µM.

**Q.** For `O=C(CCc1ccc(O)cc1)c1c(O)cc(O)cc1O` [phloretin], which “Concentration inhibiting S. aureus biofilm formation” value [14] is on record?
**A.** The value was at most 4 µM.

**Q.** Which Concentration showing cytotoxicity (breast cancer cell lines) does the source give for prulonide A here?
**A.** The Concentration showing cytotoxicity was 1000 nM.
